This is an account of results in BindingDB's records for doi:10.1021/jm0011171 (Stockholm University, 2001).

This experiment has as its target T1, Dimer of Gag-Pol polyprotein [489-587] (Human immunodeficiency virus 1, UniProt P12497).
T1 construct: 489-587
Kind of experiment: Protease Inhibition Assay. The following applies: pH 5; 30 °C. The protocol: A fluorimetric assay was used to determine the effects of the inhibitors on HIV-1 protease. This assay used an internally quenched fluorescent peptide substrate. The measurements were performed in 96-well plates with a Fluoroscan plate reader. Excitation and emission wavelengths were 355 nm and 500 nm, respectively.
As to `O=C(N[C@H]1c2ccccc2C[C@H]1O)[C@H](CCc1ccccc1)[C@@H](O)[C@H](O)[C@@H](CCc1ccccc1)C(=O)N[C@H]1c2ccccc2C[C@H]1O` [(2R,3R,4R,5R)-3,4-dihydroxy-N,N'-bis[(1S,2R)-2-hydroxy-2,3-dihydro-1H-inden-1-yl]-2,5-bis(2-phenylethyl)hexanediamide], the inhibitory constant (Ki) (commonly a measure of affinity in units of concentration, obtained from inhibition or displacement) was 1.1 nM.
The figure for `O=C(N[C@H]1c2ccccc2C[C@H]1O)[C@H](CCc1ccccc1)[C@H](O)[C@H](O)[C@@H](CCc1ccccc1)C(=O)N[C@H]1c2ccccc2C[C@H]1O` [N1,N6 -Bis[(2R)-hydroxy-(1S)-indanyl]-(2R,3R,4S,5R)-3,4-dihydroxy-2,5-bis(2-phenylethyl)hexanediamide] is 28 nM; for `O=C(N[C@H]1c2ccccc2C[C@H]1O)[C@H](OCc1ccccc1)[C@H](O)[C@@H](O)[C@@H](OCc1ccccc1)C(=O)N[C@H]1c2ccccc2C[C@H]1O` [symmetric/asymmetric inhibitor 2] it is 0.6 nM.
